Laboratory results published in US11420994B2, “Carbon-monoxide-releasing molecules and therapeutic applications thereof” (GEORGIA STATE UNIVERSITY RESEARCH FOUNDATION, INC., priority 2016, dated 2022).

How the values were obtained:
RAW cells = assay: WST-1 cytotoxicity test; assay type: cell-based, mouse
Experimental: In order to assess the cytotoxic effect of the reactants, 1 and 6a, as well as product 31, on RAW cells, the cytotoxicity test WST-1 was performed to examine induction by TPCPD (1) and BCN (6a) over varying concentrations and periods of time (FIGS. 3a-c).
Different concentrations of each molecule were assessed: from 0.78 to 100 μM for 1 and 31 and 7.8 to 1000 μM for 6a. Different time points were assessed (1 h, 4 h, 8 h and 24 h). Triton 0.1% was used as a positive control of cytotoxicity and the subsequent value was established as 100% of cytotoxicity.

[1] = Reaction of TPCPD with cyclooctynes at 50 mM, time to completion; assay type: physicochemical; conditions: 50 mM concentration
TNF-α = TNF-α ELISA in LPS treated RAW 264.7 cells pre-treated with CO prodrug; assay type: cell-based, mouse; conditions: pre-treated 5 h, then LPS 1 h
Experimental: RAW 264.7 cells were seeded in the 48-well plate one day before the experiment.
LPS was used to initialize the inflammatory response in RAW 264.7 cells and trigger the expression of cytokines. RAW 264.7 cells were pre-treated with different concentrations of 10b or 44b product for 5 hours. Thereafter, […] LPS was added with into the cell culture media. For TNF-α test, the cell culture supernatant was collected after 1 hour of LPS treatment. For IL-6 test, the cell culture supernatant was collected after 4 hours of LPS treatment. Cell culture without LPS treatment was used as control.
10a-10d, and 100 with different release rates were chosen to test their inhibitory effect against lipopolysaccharide (LPS) induced TNF-α secretion in RAW 264.7 cells. […] This was followed by the treatment of LPS for another 1 h. Then the cell culture supernatants were subjected to ELISA assay for TNF-α levels.

[2] = Fluorescence properties of the cycloaddition products; assay type: physicochemical; conditions: for λem emission wavelength / λex excitation wavelength: of the cycloaddition products 44a-44f and 100a; for Φ quantum yield: of the cycloaddition products 44a-44f and 100a in MeOH, quinine sulfate as the standard
[3] = CO release kinetics by increase of fluorescence intensity; assay type: physicochemical; conditions: DMSO/PBS (pH = 7.4) 5:1 at 37° C.
Experimental: Compound 10a was dissolved indifferent solvents including CH2Cl2 (25° C.), CH3CN (25° C.), DMSO (25° C.), DMSO/PBS (10:1, 25° C.), DMSO/PBS (5:1, 25° C.), and DMSO/PBS (5:1, 37° C.) to give a final concentration of around 100 μM, and CO release was monitored by fluorescence intensity at 450 nm. Each experiment was repeated three times independently. The CO release rate (first order reaction rate) in DCM, CH3CN, DMSO, DMSO/PBS (10:1), DMSO/PBS (5:1), and DMSO/PBS (5:1, 37° C.) were different and their individual rate constant was calculated to be 2.3±0.2, 3.6±0.4, 6.6±0.6, 7.7±0.6, 11.0±1.4 and 22.4±3.2 h^−1, respectively. […] The CO release rate increased along with the polarity of the solvent.

TNBS induced colitis = TNBS induced colitis in mice; assay type: in vivo
Experimental: Male adult C57BL/6 mice (8-12 weeks, 20-25 g) were obtained from Sichuan University laboratory animal center, and housed in standard conditions with constant temperature (22±2° C.) and 12 h light-dark cycle, free to sterile water and standard food.
TNBS (Trinitrobenzene sulfonic acid) enema was used for colitis induction.^3 Mice were randomly assigned into four groups: sham control group, TNBS model group, 10b treatment group and 44b group. Briefly, mice were fasted for 24 h, and then lightly anesthetized with 1% isoflurane. TNBS (in saline-ethanol, 50:50, v/v) solution 50 μL was infused into the colon using a cannula with the depth of 4 cm from anus. Mice in sham control group received 50 μL vehicle (saline-ethanol, 50:50, v/v). Mice were held with a vertical position for at least 30s after infusion, for sake of homogenous distribution and retention of TNBS. Mice would not be put back to the cage until they wake up and have autonomous respiration.
Drug administration. Vehicle solution (Solutol:saline=30:70), 10b (15 mg/kg) and 44b (15 mg/kg) was i.p. injected 1 hour before model construction; and 24 h, 48 h and 72 h after model construction. Euthanasia was conducted on 1st/3rd/7th day respectively through intraperitoneally injecting of pentobarbital sodium, and samples were removed and analyzed later.
Macroscopic evaluation of colitis damage. Colons were removed quickly and lengths were measured and represented in centimeter. After that, colons were longitudinally excised and carefully washed with ice-cold normal saline. Macroscopic signs of colon damage were evaluated by an experimenter blind to the mice grouping, according to an established semi-quantitative scoring system: Ulcer (0.5 points=0.5 cm); Colonic shortening (1 point≥15%, 2 points≥25%, based on the average length of colons from the control group); Every additional presence of hemorrhage, diarrhea or fecal blood added 1 point to the score. Intestinal wall thickness was measured in millimeter and recorded as well.
Mice were dosed with 10b (15 mg/kg), 44b (15 mg/kg), or the vehicle (solutol/saline=30:70) control by intraperitoneal injection 1 h before the model construction, and then dosed again at 24 h, 48 h and 72 h time points after the model construction; and then sacrificed. Colon was removed for macroscopic evaluation of colitis damage.

[4] = Determination of CO release rates (fluorescence or UV absorbance); assay type: physicochemical; conditions: DMSO/PBS (4:1) at 37° C.
Experimental: For CO prodrugs with naphthalene scaffold, the CO release rate is easily done by monitoring the fluorescence intensity of the cyclized product. For the others, the CO release rate was determined by employing the UV absorbance difference between the prodrugs and the cyclized product.

[5] = Kinetics of the Diels-Alder reaction of TPCPD with exo-BCN (UV-Vis); assay type: physicochemical
Experimental: Separate solutions of pure TPCPD (1) and pure exo-BCN (6a) (>95-98% by H-NMR) were prepared in HPLC-grade methanol (acetonitrile, 1,2-dichloroethane, dioxane) at room temperature. The stability of TPCPD in methanol (25 μM) was examined by monitoring its absorption maximum at 335 nm. The solutions containing TPCPD (1, 50 μM, 400 μL) and 18-fold excess of exo-BCN (6a, 900 μM, 400 μL) were added into quartz cuvettes, thoroughly mixed and sealed with a PTFE cap. All kinetic runs were triplicates. Curve fitting was operated in Prism5 software.
The reaction between 1 and 6a (Scheme 8) leads to significant changes in the UV-Vis spectrum of TPCPD […] due to its conversion to the cyclization product 31 (FIG. 1a). Therefore, the reaction can be easily monitored.
It was observed that the reaction rate between TPCPD and BCN was moderately sensitive to the reaction solvent. Methanol, acetonitrile, […] (DCE), and dioxane were chosen for the kinetic studies. The reaction appears to be faster in polar solvents than in nonpolar solvents. […] In order to utilize the reaction under physiological conditions, the reaction rate was measured at physiological temperature, 37° C.

[6] = 8 h, within the concentration range studied
[7] = 15 mg/kg i.p., compared to the TNBS group

## OCC1[C@H]2CCC#CCC[C@@H]12 (some centres unmarked) [BCN]
RAW cells; [6]
  cytotoxicity: Neither 6a (FIG. 3b) and nor the product (FIG. 3c) displayed any sign of cytotoxicity
RAW cells; 24 h, 1 mM
  cytotoxicity: 60%
[1]
  time in which reaction with TPCPD finished: ≤ 5 min

## CN(CC#C[Si](c1ccccc1)(c1ccccc1)C(C)(C)C)C(=O)C1=C2C(=C(c3ccccc3)C1=O)c1cccc3cccc2c13 [Compound 10d]
TNF-α
  LPS-induced TNF-α expression / secretion: suppressed TNF-α secretion, but it did not show any dose-dependent effect
[2]
  λem emission wavelength: 456 nm
  λex excitation wavelength: 378 nm
  Φ quantum yield: 0.21
[3]
  k CO release rate: 22.6 ± 0.2 h⁻¹

## C#CCOC(=O)C1=C2C(=C(c3ccccc3)C1=O)c1cccc3cccc2c13 [Compound 10e]
[2]
  λem emission wavelength: 454 nm
  λex excitation wavelength: 367 nm
  Φ quantum yield: 0.14

## C#CCNC(=O)C1=C2C(=C(c3ccccc3)C1=O)c1cccc3cccc2c13 [Compound 10f]
[2]
  λem emission wavelength: 456 nm
  λex excitation wavelength: 370 nm
  Φ quantum yield: 0.18

## OC[C@@H]1[C@H]2CCc3c(c(-c4ccccc4)c(-c4ccccc4)c(-c4ccccc4)c3-c3ccccc3)CC[C@@H]12 [Compound 31]
RAW cells; [6]
  cytotoxicity: Neither 6a (FIG. 3b) and nor the product (FIG. 3c) displayed any sign of cytotoxicity
RAW cells; 24 h, within the concentration range tested
  cytotoxicity: not cytotoxic

## CC(C)N1CCc2cc(-c3ccccc3)c3c(c2C1=O)-c1cccc2cccc-3c12 [Compound 44b]
TNBS induced colitis; 15 mg/kg i.p. 1 h before and 24, 48, 72 h after TNBS
  survival rate: no similar effects were observed
TNBS induced colitis; [7]
  colon length: no similar effects were observed
  colon thickness: no similar effects were observed
  injury score: no similar effects were observed
TNF-α
  LPS-induced TNF-α expression / secretion: did not show any TNF-α suppression effects

## Cc1c2c(c3c(c1-c1ccccc1)-c1cccc4cccc-3c14)C(=O)N(C(C)C)CC2 [Compound 44c]
TNF-α
  LPS-induced TNF-α expression / secretion: did not show any TNF-α suppression effects

## CN1Cc2c(c3c(c(-c4ccccc4)c2[Si](c2ccccc2)(c2ccccc2)C(C)(C)C)-c2cccc4cccc-3c24)C1=O [Compound 44d]
TNF-α
  LPS-induced TNF-α expression / secretion: did not show any TNF-α suppression effects

## C#CC(C)OC(=O)C1=C2C(=C(c3ccccc3)C1=O)c1cccc3cccc2c13 (centres unmarked) [Compound 104]
[4]
  K CO release: 0.012 ± 0.0003 h⁻¹

## C#CC(C)(C)OC(=O)C1=C2C(=C(c3ccccc3)C1=O)c1cccc3cccc2c13 [Compound 105]
[4]
  K CO release: 1.28 ± 0.183 h⁻¹

## C#CC(C)NC(=O)C1=C2C(=C(c3ccccc3)C1=O)c1cccc3cccc2c13 (centres unmarked) [Compound 108]
[4]
  K CO release: 0.058 ± 0.003 h⁻¹

## C#CC(C)(C)NC(=O)C1=C2C(=C(c3ccccc3)C1=O)c1cccc3cccc2c13 [Compound 109]
[4]
  K CO release: 3.31 ± 0.28 h⁻¹

## C#CCCN(CCN1CCOCC1)C(=O)C1=C2C(=C(c3ccccc3)C1=O)c1cccc3cccc2c13 [Compound 110]
[4]
  time in which CO release was finished: CO release was finished in 4 h.

## C#CC(C)(C)NC(=O)C1=C2C(=C(SC)C1=O)c1cccc3cccc2c13 [Compound 111]
[4]
  K CO release: 4.63 ± 0.28 h⁻¹

## C#CC(C)(C)OC(=O)C1=C2C(=C(SC)C1=O)c1cccc3cccc2c13 [Compound 112]
[4]
  K CO release: 1.29 ± 0.07 h⁻¹

## C#CCOC(=O)C1=C(c2ccccc2)C(c2ccccc2)=C(c2ccccc2)C1=O [Compound 119]
[4]
  K CO release: 5.89 ± 0.61 h⁻¹

## C#CC(C)OC(=O)C1=C(c2ccccc2)C(c2ccccc2)=C(c2ccccc2)C1=O (centres unmarked) [Compound 120]
[4]
  K CO release: 9.4 ± 0.02 h⁻¹

## C#CC(C)Oc1ccccc1C1=C2C(=C(C(=O)N3CCOCC3)C1=O)c1cccc3cccc2c13 (centres unmarked) [Compound 125]
[4]
  K CO release: 0.10 ± 0.003 h⁻¹

## C#CCN(c1ccccc1C1=C2C(=C(C(=O)N3CCOCC3)C1=O)c1cccc3cccc2c13)S(C)(=O)=O [Compound 127]
[4]
  K CO release: 0.88 ± 0.01 h⁻¹

## O=C1C(c2ccccc2)=C(c2ccccc2)C(c2ccccc2)=C1c1ccccc1 [TPCPD]
[5]; CH3CN, r.t.
  k2 second order rate constant: 0.26 M⁻¹ s⁻¹
[5]; DCE, r.t.
  k2 second order rate constant: 0.17 M⁻¹ s⁻¹
[5]; Dioxane, r.t.
  k2 second order rate constant: 0.096 M⁻¹ s⁻¹
[5]; MeOH, 37° C.
  k2 second order rate constant: 1.1 M⁻¹ s⁻¹
[5]; MeOH, r.t.
  k2 second order rate constant: 0.50 M⁻¹ s⁻¹
RAW cells; 8 h, 50 μM
  toxicity (Triton 0.1% = 100%): 44%
RAW cells; 8 h, 100 μM
  toxicity (Triton 0.1% = 100%): 49%
RAW cells; 24 h, concentrations higher than 12.5 μM
  cytotoxicity: more than 50%

## C1#CCCCCCC1 [cyclooctyne]
[1]
  time in which reaction with TPCPD finished: 15 min

## fluorocyclooctyne [fluorocycolooctyne]
[1]
  time after which reaction with TPCPD had not reached completion: > 24 h
